Measurements taken from US20250169499A1, “IMAZAMOX AND GLYPHOSATE FOR CONTROLLING DIGITARIA INSULARIS” (BASF AGROCHEMICAL PRODUCTS B.V., priority 2021, published 2025).

Tests used:
Assay type in all cases: in vivo, Digitaria insularis
Settings in all cases: DASH 0.5% v/v
D. insularis (flowering) = experiment: Field trial, post-emergence application B (desiccation 0 days before soybean sowing), visual weed control rated 28 DAA-B
Description: (§1) A soil sample from the experimental site was analyzed and provided pH H2O 5.3; 0 cmolc H+Al^+3/dm^3; 4.2 cmolc/dm^3 Ca^+2; 1.6 cmolc/dm^3 Mg^+2; 242 mg/dm^3 K^+; 42.3 mg/dm^3 P; 18% sand; 15% silt and 67% clay.
(§2) For all herbicide applications, the applications were made using a backpack sprayer that was pressurized by CO2 with six flat fan nozzles XR110.015 at 3 bar, which caused the application volume to reach 150 L ha^−1.
(§3) Glyphosate was used as a commercially available soluble concentrate (SL)-formulation containing glyphosate as its potassium salt (480 g/l of glyphosate in its acid form), which is commercially available under the trade name Roundup Transorb R.
(§4) Imazamox was used as a commercially available water dispersible granule (WG)-formulation containing 700 g/Kg of imazamox, which is commercially available under the trade name Raptor® 70 DG.
(§5) In table 1, all details related to mode of application of herbicides, and climatic conditions during herbicide application are listed.
Crop sowing (in case of A and B; in case of A*, no crops were sown) was carried out under a no-tillage system, by distributing 16 seeds per meter of a M6410® soybean variety in all treatments with Raptor® 70 DG and also 16 seeds m^−1 of a second soybean cultivar (BMX Potência RR) in the remaining treatments. Immediately before sowing, the seeds of both cultivars were treated with a formulation of fipronil, pyraclostrobin and thiophanate methyl (Standak® Top; 200 mL per ha). Crop fertilization was performed with 300 kg ha^−1 of a commercial N-P-K formulation (02-20-18).
For the post-emergence treatment, the test plants were first grown to a height of 3 to 20 cm, depending on the plant habit, and only then treated. Here, the herbicidal compositions were suspended or emulsified in water as distribution medium and sprayed using finely distributing nozzles.
Herbicide B was formulated as 10% by weight strength suspension concentrate and introduced to the spray liquor with the amount of solvent system used for applying the active compound. […]
(§6) The value E, which is to be expected if the activity of the individual compounds is just additive, was calculated using the method of S. R. Colby (1967) “Calculating synergistic and antagonistic responses of herbicide combinations”, Weeds 15, p. […] For two component mixtures the value E was calculated by the following formula […]
(§7) If the value observed in this manner is higher than the value E calculated according to Colby, a synergistic effect is present. […]
(§8) The results are summarized in the following tables 2, 3 and 4 that show the herbicidal activity of the individual actives and of their combinations in post-emergence application assessed 14, 28 and 35 day after treatment (DAT), respectively.

[1] = tested on: D. insularis (early stage - 2 to 6 leaves); experiment: Field trial, post-emergence application A* (no soybean sowing), visual weed control rated 35 DAA-A*
Description: as §1, §2
Glyphosate was used as a commercially available soluble concentrate (SL)-formulation containing glyphosate as its potassium salt (480 g/l of glyphosate in its acid form), which is commercially available under the trade name Roundup Transorb R. […]
as §6, §7, §8

D. insularis (perennial) = experiment: Field trial, post-emergence application A (desiccation 30 days before soybean sowing), visual weed control rated 14 DAA-A
Description: as §1, §2, §3, §4, §5
Crop sowing (in case of A and B; in case of A*, no crops were sown) was carried out under a no-tillage system, by distributing 16 seeds per meter of a M6410® soybean variety in all treatments with Raptor® 70 DG and also 16 seeds m^−1 of a second soybean cultivar (BMX Potência RR) in the remaining treatments. Immediately before sowing, the seeds of both cultivars were treated with a formulation of fipronil, pyraclostrobin and thiophanate methyl (Standak® Top; 200 mL per ha). Crop fertilization was performed with 300 kg ha^−1 of a commercial N-P-K formulation (02-20-18). […]
After the first application (application “A” and “A*”), two evaluations were performed on the effect of treatments on the weeds emerged at that application. For those evaluations, the infestation of the untreated control is used as reference. These assessments for the damage caused by the herbicides A and B, and the binary herbicide combination thereof were carried out at 14 days after application “A” (14 DAA-A) or 35 days after application “A*” (35-DAA-A*) using a scale from 0 to 100%, compared to the untreated control plants. Here, 0 means no damage and 100 means complete destruction of the plants.
The value E, which is to be expected if the activity of the individual compounds is just additive, was calculated using the method of S. R. Colby (1967) “Calculating synergistic and antagonistic responses of herbicide combinations”, Weeds 15, p. 22 ff. For two component mixtures the value E was calculated by the following formula […]
as §7

SMILES: COCc1cnc(C2=NC(C)(C(C)C)C(=O)N2)c(C(=O)O)c1 (stereo not shown) [Herbicide B, 2-(4-isopropyl-4-methyl-5-oxo-2-imidazolin-2-yl)-5-(methoxymethyl)nicotinic acid]
- Control (%) of D. insularis (flowering) (D. insularis (flowering); dose 70 g ai/ha): 40%
- Control (%) of D. insularis (flowering) (D. insularis (flowering); dose 105 g ai/ha): 40%
- Control (%) of D. insularis (flowering) (D. insularis (flowering); dose 140 g ai/ha): 50%
- Control (%) of D. insularis (early stage - 2 to 6 leaves) ([1]; dose 105 g ai/ha): 13%
- Control (%) of D. insularis (perennial) (D. insularis (perennial); dose 49 g ai/ha): 13%
- Control (%) of D. insularis (perennial) (D. insularis (perennial); dose 70 g ai/ha): 20%
- Control (%) of D. insularis (perennial) (D. insularis (perennial); dose 91 g ai/ha): 20%

SMILES: O=C(O)CNCP(=O)(O)O [Herbicide A, N-(phosphonomethyl)glycine]
- Control (%) of D. insularis (flowering) (D. insularis (flowering); dose 1440 g ai/ha): 45%
- Control (%) of D. insularis (early stage - 2 to 6 leaves) ([1]; dose 1080 g ai/ha): 5%
- Control (%) of D. insularis (perennial) (D. insularis (perennial); dose 1080 g ai/ha, scale 0-100% vs untreated): 5%
